Test results: ChEMBL document CHEMBL1125230, “Analysis of the in vitro antitumor activity of novel purine-6-sulfenamide, -sulfinamide, and -sulfonamide nucleosides and certain related compounds using a computer-aided receptor modeling procedure” (1991)

System: L1210
Experiment: In vitro growth inhibition of L1210 tumor cells
Assay type: functional, Mus musculus

| Structure (SMILES) | Log 1/ID50 |
| --- | --- |
| NS(=O)(=O)c1ncnc2c1ncn2[C@@H]1O[C@H](CO)[C@@H](O)[C@@H]1O | 4 |
| NS(=O)(=O)c1ncnc2c1ncn2[C@@H]1O[C@H](CO)[C@@H](O)[C@H]1O | 4.92 |
| NSc1nc(N)nc2c1ncn2[C@H]1C[C@H](O)[C@@H](CO)O1 | 6.06 |
| NSc1ncnc2c1ncn2[C@H]1C[C@H](O)[C@@H](CO)O1 | 6.66 |
| NS(=O)(=O)c1ncnc2c1ncn2[C@H]1C[C@H](O)[C@@H](CO)O1 | 4.56 |
| NSc1ncnc2c([C@@H]3O[C@H](CO)[C@@H](O)[C@H]3O)n[nH]c12 | 4.69 |
| N=C1N=C(S)C2N=CN([C@H]3C[C@H](O)[C@@H](CO)O3)C2=N1 (stereo partly specified) | 7.3 |
| NSc1ncnc2c1ncn2C1O[C@H](CO)[C@@H](O)[C@H]1O (stereo partly specified) | 5.22 |
| C[C@H]1OC(n2cnc3c(SN)nc(N)nc32)[C@H](O)[C@@H]1O (stereo partly specified) | 6 |
| Nc1nc(S(N)(=O)=O)c2ncn(C3O[C@H](CO)[C@@H](O)[C@H]3O)c2n1 (stereo partly specified) | 5.7 |
| NC(=O)c1ncnc2c1cnn2C1O[C@H](CO)[C@@H](O)[C@H]1O (stereo partly specified) | 4.38 |
| NSc1nc(N)nc2c1ncn2C1O[C@H](CO)[C@@H](O)[C@H]1O (stereo partly specified) | 6.52 |
| C[C@H]1OC(n2cnc3c(S(N)(=O)=O)nc(N)nc32)[C@H](O)[C@@H]1O (stereo partly specified) | 5.42 |
| NSc1ncnc2c1cnn2C1O[C@H](CO)[C@@H](O)[C@H]1O (stereo partly specified) | 4.51 |
| Nc1nc([S+](N)[O-])c2ncn([C@@H]3C[C@@H](O)[C@H](CO)O3)c2n1 (mixture of isomers) | 4.45 |
| N[S+]([O-])c1ncnc2c1ncn2[C@@H]1C[C@@H](O)[C@H](CO)O1 (mixture of isomers) | 4.6 |
| Nc1cc2c(ncn2C2O[C@H](CO)[C@@H](O)[C@H]2O)c([S+](N)[O-])n1 (mixture of isomers) | 3 |
| Nc1nc([S+](N)[O-])c2ncn(C3O[C@H](CO)[C@@H](O)[C@H]3O)c2n1 (mixture of isomers) | 6 |
| N[S+]([O-])c1ncnc2c1ncn2C1O[C@H](CO)[C@@H](O)[C@H]1O (mixture of isomers) | 4 |
| C[C@H]1OC(n2cnc3c([S+](N)[O-])nc(N)nc32)[C@H](O)[C@@H]1O (mixture of isomers) | 5.55 |
| Nc1nc([S+](N)[O-])c2ncn([C@@H]3C[C@@H](O)[C@H](CO)O3)c2n1 (stereo in doubt; 9) | 5.52 |
